In US10870652B2, “Compounds and methods for modulating bruton's tyrosine kinase” (CORVUS PHARMACEUTICALS, INC., priority 2016, dated 2020) one finds IC50 data, which are given here for 16 compounds.

Some results are limits rather than exact numbers.

Format in all cases: biochemical
The target of one experiment is T1, JAK3 (Homo sapiens, UniProt P52333).
T1 sequence (P52333 1-1124): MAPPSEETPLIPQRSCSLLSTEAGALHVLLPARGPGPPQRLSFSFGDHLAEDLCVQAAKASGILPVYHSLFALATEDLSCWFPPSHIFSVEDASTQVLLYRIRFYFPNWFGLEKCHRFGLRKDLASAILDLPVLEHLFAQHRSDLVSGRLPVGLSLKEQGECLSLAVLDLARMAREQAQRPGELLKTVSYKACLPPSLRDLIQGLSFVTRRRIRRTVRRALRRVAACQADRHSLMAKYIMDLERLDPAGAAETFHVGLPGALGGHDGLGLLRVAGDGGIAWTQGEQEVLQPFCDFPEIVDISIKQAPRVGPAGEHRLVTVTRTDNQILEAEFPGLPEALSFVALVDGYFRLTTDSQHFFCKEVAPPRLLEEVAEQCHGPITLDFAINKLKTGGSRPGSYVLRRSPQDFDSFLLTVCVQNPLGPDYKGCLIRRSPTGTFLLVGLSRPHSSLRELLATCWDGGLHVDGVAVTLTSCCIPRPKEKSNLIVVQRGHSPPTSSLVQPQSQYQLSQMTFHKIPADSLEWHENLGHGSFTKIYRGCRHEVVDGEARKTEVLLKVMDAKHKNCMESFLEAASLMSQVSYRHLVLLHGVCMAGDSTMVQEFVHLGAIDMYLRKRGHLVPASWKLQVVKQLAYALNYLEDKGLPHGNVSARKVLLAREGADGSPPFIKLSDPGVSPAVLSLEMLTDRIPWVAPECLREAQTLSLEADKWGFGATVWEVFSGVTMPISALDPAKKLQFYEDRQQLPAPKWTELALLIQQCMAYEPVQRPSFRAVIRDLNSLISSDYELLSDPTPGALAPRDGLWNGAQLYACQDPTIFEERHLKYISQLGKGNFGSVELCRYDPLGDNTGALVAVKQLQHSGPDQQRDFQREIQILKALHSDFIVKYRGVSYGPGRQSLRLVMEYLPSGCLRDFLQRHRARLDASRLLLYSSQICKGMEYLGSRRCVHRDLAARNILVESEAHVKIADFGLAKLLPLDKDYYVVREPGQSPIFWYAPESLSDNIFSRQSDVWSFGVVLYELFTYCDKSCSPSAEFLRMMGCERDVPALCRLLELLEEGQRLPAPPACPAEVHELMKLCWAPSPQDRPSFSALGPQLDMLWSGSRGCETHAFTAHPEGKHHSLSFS
As to the kind of experiment: JAK3 IC50 kinase inhibition assay.

In a further experiment the target is BTK (Homo sapiens, UniProt Q06187). As to the kind of experiment: BTK IC50 kinase inhibition assay.
The target in another experiment is T2, ITK (Homo sapiens, UniProt Q08881).
T2 sequence (Q08881 1-620): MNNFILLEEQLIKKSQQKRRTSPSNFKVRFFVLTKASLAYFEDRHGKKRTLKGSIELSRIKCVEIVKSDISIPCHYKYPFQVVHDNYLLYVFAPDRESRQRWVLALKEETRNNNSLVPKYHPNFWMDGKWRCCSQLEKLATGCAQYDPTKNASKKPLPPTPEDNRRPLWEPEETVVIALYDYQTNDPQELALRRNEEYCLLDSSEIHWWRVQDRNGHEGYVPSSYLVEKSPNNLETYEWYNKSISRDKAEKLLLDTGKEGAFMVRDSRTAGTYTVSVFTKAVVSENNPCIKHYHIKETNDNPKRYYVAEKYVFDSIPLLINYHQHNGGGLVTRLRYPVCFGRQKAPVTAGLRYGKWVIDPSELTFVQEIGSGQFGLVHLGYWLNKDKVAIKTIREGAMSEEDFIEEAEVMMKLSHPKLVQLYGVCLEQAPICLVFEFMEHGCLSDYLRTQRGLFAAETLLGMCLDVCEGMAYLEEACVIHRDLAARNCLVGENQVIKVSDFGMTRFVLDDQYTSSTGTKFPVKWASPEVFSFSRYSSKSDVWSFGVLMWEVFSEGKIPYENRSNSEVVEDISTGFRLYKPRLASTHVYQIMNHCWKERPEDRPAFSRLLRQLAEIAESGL
The experiment can be described thus: ITK IC50 kinase inhibition assay.

In a further experiment the target is T3, TXK (Homo sapiens, UniProt P42681).
T3 sequence (P42681 1-527): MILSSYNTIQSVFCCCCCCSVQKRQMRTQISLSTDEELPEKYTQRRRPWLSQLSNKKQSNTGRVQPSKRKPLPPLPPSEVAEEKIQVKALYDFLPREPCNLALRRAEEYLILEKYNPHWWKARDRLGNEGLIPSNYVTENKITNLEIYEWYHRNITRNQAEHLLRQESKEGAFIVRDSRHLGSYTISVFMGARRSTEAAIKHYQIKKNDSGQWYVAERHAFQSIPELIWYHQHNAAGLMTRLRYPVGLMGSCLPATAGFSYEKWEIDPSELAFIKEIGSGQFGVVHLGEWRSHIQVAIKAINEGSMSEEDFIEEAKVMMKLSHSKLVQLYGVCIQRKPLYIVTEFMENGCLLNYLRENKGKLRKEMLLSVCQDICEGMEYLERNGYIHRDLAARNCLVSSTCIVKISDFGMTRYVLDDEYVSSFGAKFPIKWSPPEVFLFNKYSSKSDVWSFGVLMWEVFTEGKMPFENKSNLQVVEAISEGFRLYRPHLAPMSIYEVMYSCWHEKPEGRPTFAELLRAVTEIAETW
The experiment can be described thus: TXK IC50 kinase inhibition assay.

Sequence of BTK (Q06187 whole entry): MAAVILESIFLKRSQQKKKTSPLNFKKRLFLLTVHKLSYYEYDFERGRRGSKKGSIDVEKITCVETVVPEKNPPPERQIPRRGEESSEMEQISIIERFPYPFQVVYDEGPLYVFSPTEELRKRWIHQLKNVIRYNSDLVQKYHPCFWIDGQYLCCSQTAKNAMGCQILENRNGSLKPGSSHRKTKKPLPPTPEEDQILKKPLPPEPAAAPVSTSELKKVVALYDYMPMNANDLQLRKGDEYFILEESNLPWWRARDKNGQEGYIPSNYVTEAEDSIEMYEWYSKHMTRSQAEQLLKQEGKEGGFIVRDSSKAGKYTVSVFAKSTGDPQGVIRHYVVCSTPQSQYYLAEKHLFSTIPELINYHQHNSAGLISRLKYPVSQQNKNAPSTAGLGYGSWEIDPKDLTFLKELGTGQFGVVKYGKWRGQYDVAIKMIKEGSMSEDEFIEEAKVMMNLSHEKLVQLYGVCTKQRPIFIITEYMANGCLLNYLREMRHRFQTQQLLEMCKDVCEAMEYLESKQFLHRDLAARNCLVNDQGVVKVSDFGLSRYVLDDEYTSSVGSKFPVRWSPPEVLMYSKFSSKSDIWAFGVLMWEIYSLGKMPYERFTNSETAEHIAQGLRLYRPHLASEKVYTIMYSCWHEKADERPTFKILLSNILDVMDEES

With `C=CC(=O)N1CCC[C@H]1c1nc(-c2ccc(Oc3ccccc3)cc2)c2cnccn12` [Compound A29, (S)-1-(2-(1-(4-phenoxyphenyl)imidazo[1,5-a]pyrazin-3-yl)pyrrolidin-1-yl)prop-2-en-1-one], the IC50 is > 500 nM at JAK3, < 100 nM against BTK, > 500 nM against ITK and 100 to 500 nM on TXK.

Regarding `C=CC(=O)N1CC[C@@H](c2nc(-c3ccc(Oc4ccccc4)cc3)c3cnccn23)C1` [Compound A30, (R)-1-(3-(1-(4-phenoxyphenyl)imidazo[1,5-a]pyrazin-3-yl)pyrrolidin-1-yl)prop-2-en-1-one], the IC50 against JAK3 was > 500 nM; against BTK, < 100 nM; against ITK, > 500 nM; against TXK, < 100 nM.

`CC#CC(=O)N1CCC[C@H]1c1nc(-c2ccc(Oc3ccccc3)cc2)c2cnccn12` [Compound A31, (S)-1-(2-(1-(4-phenoxyphenyl)imidazo[1,5-a]pyrazin-3-yl)pyrrolidin-1-yl)but-2-yn-1-one]: the IC50 on JAK3, on BTK, against ITK and on TXK was > 500 nM in each case.

`CC#CC(=O)N1CC[C@@H](c2nc(-c3ccc(Oc4ccccc4)cc3)c3cnccn23)C1` [Compound A32, (R)-1-(3-(1-(4-phenoxyphenyl)imidazo[1,5-a]pyrazin-3-yl)pyrrolidin-1-yl)but-2-yn-1-one]: the IC50 on JAK3 was > 500 nM; at BTK, < 100 nM; against ITK, > 500 nM; against TXK, 100 to 500 nM.

Consider `C=CC(=O)N1CCC[C@@H](n2nc(-c3ccc(Oc4ccccc4)cc3C#N)c3cncnc32)C1` [Compound A33, (R)-2-(1-(1-acryloylpiperidin-3-yl)-H-pyrazolo[3,4-d]pyrimidin-3-yl)-5-phenoxybenzonitrile], for which the half-maximal inhibitory concentration (IC50) against JAK3 was > 500 nM; against BTK it was 100 to 500 nM; at ITK, > 500 nM; at TXK, > 500 nM.

On to `C=CC(=O)N1CCC(Cn2nc(-c3ccc(Oc4ccccc4)cc3)c3cncnc32)CC1` [Compound A34, 1-(4-((3-(4-phenoxyphenyl)-1H-pyrazolo[3,4-d]pyrimidin-1-yl)methyl)piperidin-1-yl)prop-2-en-1-one], for which the IC50 against JAK3 was > 500 nM; against BTK, < 100 nM; on ITK, > 500 nM; against TXK, > 500 nM.

With `C=CC(=O)N1CC(Cn2nc(-c3ccc(Oc4ccccc4)cc3)c3cncnc32)C1` [Compound A35, 1-(3-((3-(4-phenoxyphenyl)-1H-pyrazolo[3,4-d]pyrimidin-1-yl)methyl)azetidin-1-yl)prop-2-en-1-one], the IC50 is > 500 nM on JAK3, < 100 nM at BTK, > 500 nM on ITK and 100 to 500 nM against TXK.

For the compound `C=CC(=O)N1CCC(n2nc(-c3ccc(Oc4ccccc4)cc3)c3cncnc32)CC1` [Compound A36, 1-(4-(3-(4-phenoxyphenyl)-1H-pyrazolo[3,4-d]pyrimidin-1-yl)piperidin-1-yl)prop-2-en-1-one], the IC50 against JAK3 was > 500 nM; at BTK it was 100 to 500 nM; against ITK, > 500 nM; at TXK, 100 to 500 nM.

Turning to `C=CC(=O)N1CC2(CC(n3nc(-c4ccc(Oc5ccccc5)cc4)c4cncnc43)C2)C1` [Compound A37, 1-(6-(3-(4-phenoxyphenyl)-1H-pyrazolo[3,4-d]pyrimidin-1-yl)-2-azaspiro[3.3]heptan-2-yl)prop-2-en-1-one], the IC50 on JAK3 is > 500 nM; against BTK, < 100 nM; against ITK, > 500 nM; against TXK, 100 to 500 nM.

On to `C=CC(=O)Nc1ccccc1Cn1nc(-c2ccc(Oc3ccccc3)cc2)c2cncnc21` [Compound A38, N-(2-((3-(4-phenoxyphenyl)-1H-pyrazolo[3,4-d]pyrimidin-1-yl)methyl)phenyl)acrylamide], for which the 50% inhibitory concentration (IC50) against JAK3 is > 500 nM; at BTK, < 100 nM; against ITK, > 500 nM; at TXK, < 100 nM.

Consider `C=CC(=O)N1CCC[C@@H](n2nc(-c3ccc(Oc4cccc(F)c4)cc3)c3cncnc32)C1` [Compound A39, (R)-1-(3-(3-(4-(3-fluorophenoxy)phenyl)-1H-pyrazolo[3,4-d]pyrimidin-1-yl)piperidin-1-yl)prop-2-en-1-one], for which the IC50 against JAK3 is > 500 nM; against BTK it was < 100 nM; against ITK, > 500 nM; at TXK, < 100 nM.

As to `C=CC(=O)N1CCC[C@@H](n2nc(-c3ccc(Oc4ccccc4F)cc3)c3cncnc32)C1` [Compound A40, (R)-1-(3-(3-(4-(2-fluorophenoxy)phenyl)-1H-pyrazolo[3,4-d]pyrimidin-1-yl)piperidin-1-yl)prop-2-en-1-one], the IC50 at JAK3 was > 500 nM; against BTK, < 100 nM; against ITK, > 500 nM; against TXK it was < 100 nM.

In the case of `C=CC(=O)N1CC(F)(F)C[C@H]1Cn1nc(-c2ccc(Oc3ccccc3)cc2)c2cncnc21` [Compound A41, (S)-1-(4,4-difluoro-2-((3-(4-phenoxyphenyl)-1H-pyrazolo[3,4-d]pyrimidin-1-yl)methyl)pyrrolidin-1-yl)prop-2-en-1-one], the IC50 against JAK3 was > 500 nM; against BTK, < 100 nM; on ITK, > 500 nM; on TXK it was < 100 nM.

With `C=CC(=O)NCCn1nc(-c2ccc(Oc3ccccc3)cc2)c2cncnc21` [Compound A42, N-(2-(3-(4-phenoxyphenyl)-1H-pyrazolo[3,4-d]pyrimidin-1-yl)ethyl)acrylamide], the IC50 against JAK3 is > 500 nM; at BTK it was 100 to 500 nM; against ITK, > 500 nM; on TXK it was > 500 nM.

Consider `C=CC(=O)N[C@@H](C)Cn1nc(-c2ccc(Oc3ccccc3)cc2)c2cncnc21` [Compound A43, (S)—N-(1-(3-(4-phenoxyphenyl)-1H-pyrazolo[3,4-d]pyrimidin-1-yl)propan-2-yl)acrylamide], for which the half-inhibitory concentration (IC50) at JAK3 was > 500 nM; on BTK, < 100 nM; on ITK, > 500 nM; on TXK, 100 to 500 nM.

In the case of `C=CC(=O)N1CCCC[C@H]1Cn1nc(-c2ccc(Oc3ccccc3)cc2)c2cncnc21` [Compound A44, (S)-1-(2-((3-(4-phenoxyphenyl)-1H-pyrazolo[3,4-d]pyrimidin-1-yl)methyl)piperidin-1-yl)prop-2-en-1-one], the half-maximal inhibitory concentration (IC50) against JAK3 is > 500 nM; against BTK, < 100 nM; on ITK, > 500 nM; against TXK it was 100 to 500 nM.

For orientation: IC50 means the concentration at which inhibition is half-maximal. A high value points to a need for much substance.
